Measurements reported in ChEMBL document CHEMBL1201862, “PubChem BioAssay data set” (2004).
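Cultured in 96-well plates, cells were exposed to test compound for 48 hours across five concentrations. GI50: concentration for 50% inhibition of growth.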 Activity calls are given as the source filed them. No stated cut-off is given here; in the data, active = GI50 up to about 1.1 µM and inactive = higher.

Tests used:
Experiment in all cases: growth of human tumour cells (NCI), 48 h
786-0 = test system: 786-0
UACC-62 = test system: UACC-62
U-251 = test system: U-251
HCT-15 = test system: HCT-15
HT-29 = test system: HT-29
OVCAR-3 = test system: OVCAR-3
Hs-578T = test system: Hs-578T
KM12 = test system: KM12
SF-295 = test system: SF-295
M14 = test system: M14
SNB-75 = test system: SNB-75
COLO 205 = test system: COLO 205
TK-10 = test system: TK-10
SF-268 = test system: SF-268
IGROV-1 = test system: IGROV-1
MDA-N = test system: MDA-N
UACC-257 = test system: UACC-257
SF-539 = test system: SF-539

Compound	GI50 (786-0)	GI50 (UACC-62)	GI50 (U-251)	GI50 (HCT-15) [µM]	GI50 (HT-29)	GI50 (OVCAR-3)	GI50 (Hs-578T)	GI50 (KM12)	GI50 (SF-295)	GI50 (M14)	GI50 (SNB-75)	GI50 (COLO 205)	GI50 (TK-10)	GI50 (SF-268)	GI50 (IGROV-1)	GI50 (MDA-N)	GI50 (UACC-257)	GI50 (SF-539)
CN(C)CCCc1cccnc1	> 100 µM (inactive)	> 100 µM (inactive)	> 100 µM (inactive)	> 100	> 100 µM (inactive)	> 100 µM (inactive)	> 100 µM (inactive)	> 100 µM (inactive)	> 100 µM (inactive)	> 100 µM (inactive)	41.7 µM (inactive)	> 100 µM (inactive)	> 100 µM (inactive)	> 100 µM (inactive)	> 100 µM (inactive)	> 100 µM (inactive)	> 100 µM (inactive)	–
O=[N+]([O-])c1ccc2sc(/C=N/c3ccccn3)cc2c1	> 100 µM (inactive)	99.1 µM (inactive)	33.7 µM (inactive)	51.4	> 100 µM (inactive)	41.8 µM (inactive)	47.6 µM (inactive)	64.6 µM (inactive)	82.8 µM (inactive)	> 100 µM (inactive)	> 100 µM (inactive)	> 100 µM (inactive)	> 100 µM (inactive)	28.5 µM (inactive)	60.4 µM (inactive)	> 100 µM (inactive)	99.8 µM (inactive)	> 100 µM (inactive)
COc1cc2c[n+](C)c3c4cc(OC)c(OC)cc4c(OC)cc3c2cc1OC	5.43 µM (inactive)	6.27 µM (inactive)	2.38 µM (inactive)	> 100	5.48 µM (inactive)	2.34 µM (inactive)	1.44 µM (inactive)	5.27 µM (inactive)	20 µM (inactive)	30.5 µM (inactive)	7.91 µM (inactive)	1.2 µM (inactive)	> 100 µM (inactive)	0.0689 µM (active)	–	6.32 µM (inactive)	2.86 µM (inactive)	1.87 µM (inactive)
[N-]=[N+]=Nc1c(N2CCOCC2)c(Cl)nc2ccccc12	86.7 µM (inactive)	–	82.6 µM (inactive)	46.6	27.2 µM (inactive)	43.5 µM (inactive)	44.8 µM (inactive)	27 µM (inactive)	60.5 µM (inactive)	37.4 µM (inactive)	< 0.01 µM (active)	33.5 µM (inactive)	61.2 µM (inactive)	37.5 µM (inactive)	81.8 µM (inactive)	48.8 µM (inactive)	27.9 µM (inactive)	65.5 µM (inactive)
NNC(=O)CC(=O)Nc1ccc(C(=O)O)cc1	> 100 µM (inactive)	> 100 µM (inactive)	> 100 µM (inactive)	> 100	> 100 µM (inactive)	> 100 µM (inactive)	> 100 µM (inactive)	> 100 µM (inactive)	> 100 µM (inactive)	–	> 100 µM (inactive)	> 100 µM (inactive)	> 100 µM (inactive)	> 100 µM (inactive)	> 100 µM (inactive)	> 100 µM (inactive)	> 100 µM (inactive)	> 100 µM (inactive)
O=C1/C(=C/c2ccco2)N=C2Sc3c([nH]cnc3=O)N12	> 100 µM (inactive)	–	> 100 µM (inactive)	> 100	> 100 µM (inactive)	> 100 µM (inactive)	> 100 µM (inactive)	> 100 µM (inactive)	> 100 µM (inactive)	> 100 µM (inactive)	> 100 µM (inactive)	> 100 µM (inactive)	> 100 µM (inactive)	> 100 µM (inactive)	> 100 µM (inactive)	> 100 µM (inactive)	> 100 µM (inactive)	> 100 µM (inactive)
COC(=O)c1c(O)ccc2c1c1c(n2CCc2ccccc2)C(=O)c2ccccc2C1	17 µM (inactive)	14.4 µM (inactive)	21.9 µM (inactive)	19.7	24.4 µM (inactive)	16.1 µM (inactive)	29.7 µM (inactive)	31.8 µM (inactive)	–	22.3 µM (inactive)	26.4 µM (inactive)	14.6 µM (inactive)	34.3 µM (inactive)	13.7 µM (inactive)	19.6 µM (inactive)	24.4 µM (inactive)	18.5 µM (inactive)	24.8 µM (inactive)
CNN1C(=O)c2c(N)c(C#N)c(-c3ccccc3)c(-c3ccccc3)c2C1=O	91.6 µM (inactive)	> 100 µM (inactive)	78.9 µM (inactive)	> 100	–	34.6 µM (inactive)	70.1 µM (inactive)	86.9 µM (inactive)	73.5 µM (inactive)	> 100 µM (inactive)	83.4 µM (inactive)	> 100 µM (inactive)	> 100 µM (inactive)	> 100 µM (inactive)	48.9 µM (inactive)	> 100 µM (inactive)	> 100 µM (inactive)	57.7 µM (inactive)
O=[N+]([O-])c1ccc(Cl)c(CNc2ncnc3c2ncn3C2CCCCO2)c1 (configuration not stated)	63.8 µM (inactive)	22.8 µM (inactive)	32.5 µM (inactive)	33.9	32.4 µM (inactive)	34.3 µM (inactive)	> 100 µM (inactive)	66.7 µM (inactive)	52 µM (inactive)	28.2 µM (inactive)	43.6 µM (inactive)	42.2 µM (inactive)	31 µM (inactive)	97.9 µM (inactive)	58.2 µM (inactive)	12.7 µM (inactive)	–	22.8 µM (inactive)
O=C(CN1C(=O)c2ccccc2C1=O)OCC1CCCN2CCCCC12 (configuration not stated)	> 100 µM (inactive)	> 100 µM (inactive)	> 100 µM (inactive)	> 100	> 100 µM (inactive)	–	> 100 µM (inactive)	> 100 µM (inactive)	> 100 µM (inactive)	–	> 100 µM (inactive)	99.5 µM (inactive)	> 100 µM (inactive)	> 100 µM (inactive)	–	> 100 µM (inactive)	> 100 µM (inactive)	> 100 µM (inactive)
CC(=O)/N=C1/N(/C=C2\C(=O)Oc3ccccc3C2=O)C(=O)/C(=C/c2ccccc2Cl)N1C	> 100 µM (inactive)	> 100 µM (inactive)	> 100 µM (inactive)	52.6	> 100 µM (inactive)	–	4.29 µM (inactive)	> 100 µM (inactive)	> 100 µM (inactive)	> 100 µM (inactive)	22.2 µM (inactive)	> 100 µM (inactive)	–	73.8 µM (inactive)	> 100 µM (inactive)	> 100 µM (inactive)	> 100 µM (inactive)	> 100 µM (inactive)
COc1ccc(C(=O)/C=C2\Nc3cccnc3N\C2=C/C(=O)c2ccc(OC)cc2)cc1	2.17 µM (inactive)	17.3 µM (inactive)	14.6 µM (inactive)	32.1	14.5 µM (inactive)	14.8 µM (inactive)	15.2 µM (inactive)	23.4 µM (inactive)	16.9 µM (inactive)	20.9 µM (inactive)	–	60.5 µM (inactive)	13.2 µM (inactive)	7.8 µM (inactive)	5.11 µM (inactive)	64.7 µM (inactive)	26.7 µM (inactive)	12.5 µM (inactive)
